Measurements taken from patent US7282215B2, “Supports for photosensitizer formulations” (The University of British Columbia, priority 2000, dated 2007).
Marks after values point to notes of the source that are not given here.

How the values were obtained:
L1210 cells [1] = assay: In vitro cellular uptake of photosensitizer formulations; assay type: cell-based; conditions: 3 μg/ml, DMEM 10% FBS, B-B3 in P123 copolymer, BPD-MA liposomal
Procedure: The protocol for setting up the cell cultures and conditions for the cellular assay essentially followed Richter et al. (Proc. SPIE, 2078: 293-304, September 1993). L1210 cells in DMEM and 10% FBS (single experiment, 3 sets) were incubated with the formulations at a concentration of 3 μg/ml and examined for uptake in the cells over time. Cells were recovered by centrifugation, the pellet briefly rinsed, and the cells lysed by freeze thawing in the presence of 2% Triton X-100®. An equal volume of methanol was added and fluorescence was read at 694 nm (λex 440 nm).

L1210 cells [2] = assay: In vitro phototoxicity (MTT assay after light exposure); assay type: cell-based
Procedure: Exposure to drugs was carried out in the presence and absence of fetal calf serum (FCS) as a model to study transfer of drug to cells in vivo. […] A suspension of L1210 cells was prepared and exposed to various drug formulations (drug concentrations ranging from 0-50 ng/ml) either in the absence or presence of 10% fetal calf serum (FCS). One hour later, the drug was removed by pelleting the cells by centrifugation. The pellet was briefly washed with 1 ml DME and resuspended in 5% FCS/DME. 100 μl of the cell suspension was aliquoted into 6 wells of a 96 well plate, and the plate exposed to light at 10 J/cm^2. Viability was determined 24 h post exposure using the MTT assay (Mosmann, J. Immunol. Meth. 65:55-63, 1983).

[3] = system: M1 rhabdomyosarcoma tumor; assay: PDT tumor recurrence in tumor mouse model; assay type: in vivo, DBA/2 mouse
Procedure: Photosensitizer formulations were prepared in 10% w/v Pluronics as described in Example 4. BPD-MA was formulated in F127. B-ring compounds B-EA6 and B-B3, were prepared in P123 due to insufficient drug loading in F127. Liposomal BPD-MA formulation was Verteporfin™ and B-ring compounds were formulated in the same lipid composition. Where DMSO/plasma preparations were made, the DMSO dissolved drug was added directly to mouse plasma and the drug association with different plasma components was observed.
In these experiments the tumor model used was the DBA/2 mouse (males) inoculated intradermally with M1 rhabdomyosarcoma tumor cells (M1, ATCC. When tumors reached a diameter of 4-6 mm, the mice (n=10, unless other wise stated) were treated with photodynamic therapy (PDT). PDT involved intravenous injection of the formulated drug in 0.2 mL volume of PBS. This was followed by exposure of the tumor region to laser light (Argon pumped dye laser (5W), 690 nm, 50J/cm2) 15 min later. Animals were then monitored for tumor recurrence over a 20 day period post treatment.

[4] = pH studies of copolymer formulations; assay type: physicochemical; conditions: acidification
Description: Counteracting the oily nature of P123 could be achieved by incorporation of copolymer that is in solid form at room temperature. The use of 1% w/w F127 with 9% w/v P123 instead of 10% P123 (w/v) produced a thin film, which was more readily hydrated. […] This necessitates hydration of the solid drug-polymer with a very mild buffer to counteract acidification which occurs upon use of sterile packed distilled water as commonly practiced in clinical settings. Behavior of poloxamers is unaffected by pH, and the use of buffers would be entirely dependent on ionizable groups present on the drug substance.

[5] = Drug loading attainable in 10% P123 (summary); assay type: physicochemical
Procedure: In the Example section below, formulation of the following A-ring compounds: BPD-MA, A-EA6, A-B3; B-ring compounds; B-EA6, and B-B3; and other photosensitizers such as dihydroxychlorins and pyropheophorbides, with P123 illustrate the versatility of this particular block copolymer. This includes A-ring compounds such as BPD-MA where block copolymers could be used to formulate an alternative product to a concentration as high as 4 mg/ml in 10% P123, and also A-EA6 and A-B3, all of which formulate very readily. B-ring compounds have lower drug loading characteristics, but concentrations of approximately 1.8 mg/ml are typical for B-B3, and lower for B-EA6. A wide range of other compounds e.g. pyropheophorbides and various dihydroxychlorins also formulate with ease to give final formulations at 2 mg/ml in 10% P123 in non-optimized systems. Therefore both the drug loading, and stability could be improved further by adjustments to composition, pH, and/or methodology of formulation.

[6] = BPD-MA/F127 deposited on lactose: hydration and 0.2 μm filtration; assay type: physicochemical; conditions: 5% w/v and 10% w/v F127 deposited on lactose, hydrated in water
Procedure: In this experiment the deposition of the photosensitizer BPD-MA with the block copolymer Pluronic® F127 onto the sugar lactose was examined. Formulations containing 5% (w/v) and a 10% (w/v) F127 were tested. 0.5 g lactose and 10 mg BPD-MA were added to two rotary evaporation flasks. A stock solution of […] F127 was prepared in CH2Cl2. 1.25 ml (for 5% w/v) and 2.5 ml (for 10% w/v) F127 stock solution was added to each flask. The final volume in each flask was made up to 5.0 ml with CH2Cl2 and the components mixed to ensure complete dissolution. The solvent was removed by rotary evaporation at 50° C., and the flask left under vacuum for a further 15 min at 23° C. Micro-thin film deposits were scraped from the walls and hydrated in 5 ml water at 50° C. The formulations were filtered twice using 0.2 μm syringe filters (Acrodisc, polysulphone).

[7] = Carrier Liposomal, −FCS, 1 h drug, light 10 J/cm^2, MTT 24 h
[8] = Liposomal, 1.0 mg/kg i.v., 690 nm 50J/cm2 15 min later, Day 7

C=Cc1c(C)c2cc3nc(cc4[nH]c(cc5nc(cc1[nH]2)C1(C)C5=CC=C(C(=O)O)C1C(=O)OC)c(C)c4CCC(=O)OC)C(CCC(=O)OC)=C3C (stereo not drawn) [B-B3]
Incubation time to 50% uptake level (L1210 cells [1]): close to ‘zero’ incubation time | Incubation time to peak / saturation of uptake (L1210 cells [1]): around 20 min | LD50 (L1210 cells [2]; Carrier Copolymer (P123), +FCS (10%)): 16.6* ng/ml | LD50 (L1210 cells [2]; Carrier Copolymer (P123), −FCS): 0.68* ng/ml | LD50 (L1210 cells [2]; Carrier DMSO, +FCS (10%)): 37.0 ng/mL | LD50 (L1210 cells [2]; Carrier DMSO, −FCS): 7.2 ng/mL | LD50 (L1210 cells [2]; Carrier Liposomal, +FCS (10%)): 30.0 ng/mL | LD50 (L1210 cells [2]; [7]): 3.0 ng/mL | Percent (%) Mice Tumor Free [3, 8]: 0^2% | Percent (%) Mice Tumor Free ([3]; Pluronic P123, 1.0 mg/kg, Day 7): 100% | Percent (%) Mice Tumor Free ([3]; Pluronic P123, 1.0 mg/kg, Day 14): 80% | Percent (%) Mice Tumor Free ([3]; Pluronic P123, 1.0 mg/kg, Day 20): 60% | Percent (%) Mice Tumor Free ([3]; Pluronic P123, 1.2 mg/kg, Day 7, n = 3): 100^3% | Percent (%) Mice Tumor Free ([3]; Pluronic P123, 1.2 mg/kg, Day 14, n = 3): 67^3% | Percent (%) Mice Tumor Free ([3]; Pluronic P123, 1.2 mg/kg, Day 20, n = 3): 67^3% | Percent (%) Mice Tumor Free ([3]; Pluronic P123, 1.25 mg/kg, Day 7): 100% | Percent (%) Mice Tumor Free ([3]; Pluronic P123, 1.25 mg/kg, Day 14): 100% | Percent (%) Mice Tumor Free ([3]; Pluronic P123, 1.25 mg/kg, Day 20): 80% | PDT efficacy in tumor model ([3]; plasma /DMSO preparation): completely ineffective | pH dependency of formulation stability [4]: detrimental to formulation stability | Formulated drug concentration [5]: approximately 1.8 mg/ml

C=Cc1c(C)c2cc3nc(cc4[nH]c(cc5nc(cc1[nH]2)C(C)=C5CCC(=O)O)c(CCC(=O)OC)c4C)[C@@]1(C)C3=CC=C(C(=O)OC)[C@H]1C(=O)OC [BPD-MA, benzoporphyrin derivative mono-acid-ring A, reference compound]
Incubation time to 50% uptake level (L1210 cells [1]): approximately 5 min | Incubation time to peak / saturation of uptake (L1210 cells [1]): 30 min | LD50 (L1210 cells [2]; Carrier Liposomal, +FCS (10%)): 38.0 ng/mL | LD50 (L1210 cells [2]; [7]): 4.0 ng/mL | Percent (%) Mice Tumor Free [3, 8]: 100% | Percent (%) Mice Tumor Free ([3]; Liposomal, 1.0 mg/kg, Day 14): 100% | Percent (%) Mice Tumor Free ([3]; Liposomal, 1.0 mg/kg, Day 20): 30% | Percent (%) Mice Tumor Free ([3]; Pluronic F127, 1.0 mg/kg, Day 7): 100% | Percent (%) Mice Tumor Free ([3]; Pluronic F127, 1.0 mg/kg, Day 14): 60% | Percent (%) Mice Tumor Free ([3]; Pluronic F127, 1.0 mg/kg, Day 20): 60% | Drug loss on filtration through 0.2 μm filters [6]: no drug loss | Formulated drug concentration [5]: ≤ 4 mg/mL
